Earlier results in patent US8394309B2, “Resin film and method for producing it, polarizer and liquid crystal display device” (FUJIFILM Corporation, priority 2010, dated 2013).

Conditions: Table 1

| SMILES | Organic acid: Acid dissociation constant |
| --- | --- |
| O=C(O)CC(O)(CC(=O)O)C(=O)O [Citric acid, reference compound] | 4.0 |
| CCCCCCCC/C=C/CCCCCCCC(=O)OCC(O)COC(=O)CC(O)(CC(=O)O)C(=O)O (centres unmarked) [Citric and oleic acid esters of glycerol, citric and oleic acid esters of glycerol] | 3.2 |
| O=C(O)CN(CC(=O)O)Cc1ccccc1 [N-benzylimino-diacetic acid, N-benzyliminodiacetic acid] | 3.2 |

The next lines start with the values.

| Organic acid: Acid dissociation constant | SMILES |
| --- | --- |
| 4.9 | CCCCCCCC/C=C\CCCCCCCC(=O)O [Oleic acid] |
| 6.0 | CCCCOB(OCCCC)OCCCC [Tributyl borate, reference compound] |
| 4.8 | CCCCCCCCCCC(=O)O [Undecanoic acid] |
| 4.8 | CCCCC(=O)O [Valeric acid, reference compound] |
| 4.5 | CCCCCCCCCCCCN(CC(=O)O)CC(=O)O [lauramino-diacetic acid, lauraminodiacetic acid] |
